Data: the CheMixHub ionic liquid set
± gives the uncertainty stated by the source.

Assay: xn = mol fraction of the nth substance listed

CCCCCCCCCCCCCCCC[n+]1ccccc1.O=C([O-])c1ccccc1O + NCC(=O)O + O
electrical conductivity [S/m], 101 kPa
Conditions | 293.15 K | 298.15 K | 303.15 K | 308.15 K | 313.15 K
x2 = 0.0009002, x1 = 5.4e-07 | 0.000445 ± 2.7e-05 | 0.000504 ± 3e-05 | 0.00057 ± 3.4e-05 | 0.000642 ± 3.9e-05 | 0.000723 ± 4.3e-05
x2 = 0.0009002, x1 = 1.26e-06 | 0.00068 ± 4.1e-05 | 0.000773 ± 4.6e-05 | 0.00087 ± 5.2e-05 | 0.000972 ± 5.8e-05 | 0.00108 ± 6.5e-05
x2 = 0.0009002, x1 = 1.63e-06 | 0.000841 ± 5e-05 | 0.000952 ± 5.7e-05 | 0.00107 ± 6.4e-05 | 0.0012 ± 7.2e-05 | 0.00134 ± 8e-05
x2 = 0.0009002, x1 = 1.99e-06 | 0.000997 ± 6e-05 | 0.00113 ± 6.9e-05 | 0.00127 ± 7.6e-05 | 0.00141 ± 8.6e-05 | 0.00156 ± 9.4e-05
x2 = 0.0009002, x1 = 2.35e-06 | 0.00114 ± 6.8e-05 | 0.00129 ± 7.7e-05 | 0.00145 ± 8.7e-05 | 0.00161 ± 9.7e-05 | 0.00179 ± 0.00011
x2 = 0.0009002, x1 = 2.89e-06 | 0.00127 ± 7.6e-05 | 0.00145 ± 8.7e-05 | 0.00164 ± 9.9e-05 | 0.00184 ± 0.00011 | 0.00205 ± 0.00012
x2 = 0.0009002, x1 = 3.43e-06 | 0.00141 ± 8.4e-05 | 0.00161 ± 9.9e-05 | 0.00185 ± 0.00011 | 0.00211 ± 0.00013 | 0.00234 ± 0.00014
x2 = 0.0009002, x1 = 4.16e-06 | 0.00157 ± 9.4e-05 | 0.0018 ± 0.00011 | 0.00206 ± 0.00012 | 0.00234 ± 0.00014 | 0.00264 ± 0.00016
x2 = 0.0009002, x1 = 4.88e-06 | 0.00173 ± 0.0001 | 0.00198 ± 0.00012 | 0.00226 ± 0.00014 | 0.00258 ± 0.00016 | 0.00292 ± 0.00018
x2 = 0.0009002, x1 = 5.6e-06 | 0.0019 ± 0.00011 | 0.00216 ± 0.00013 | 0.00247 ± 0.00015 | 0.00281 ± 0.00017 | 0.00318 ± 0.00019
x2 = 0.0009002, x1 = 6.32e-06 | 0.00205 ± 0.00012 | 0.00234 ± 0.00014 | 0.00267 ± 0.00016 | 0.00302 ± 0.00018 | 0.00343 ± 0.00021
x2 = 0.0009002, x1 = 6.87e-06 | – | – | – | – | 0.00364 ± 0.00022
x2 = 0.0009002, x1 = 7.05e-06 | 0.00217 ± 0.00013 | 0.0025 ± 0.00015 | 0.00284 ± 0.00017 | 0.00321 ± 0.00019 | –
x2 = 0.0009002, x1 = 7.59e-06 | 0.00232 ± 0.00014 | 0.00264 ± 0.00016 | 0.003 ± 0.00018 | 0.00339 ± 0.0002 | 0.00383 ± 0.00023
x2 = 0.0009002, x1 = 8.13e-06 | 0.00244 ± 0.00015 | 0.00278 ± 0.00017 | 0.00314 ± 0.00019 | 0.00356 ± 0.00021 | 0.00402 ± 0.00024
x2 = 0.0009002, x1 = 8.67e-06 | 0.00258 ± 0.00015 | 0.00292 ± 0.00018 | 0.00331 ± 0.0002 | 0.00374 ± 0.00022 | 0.00421 ± 0.00025
x2 = 0.001799, x1 = 3.6e-07 | 0.000498 ± 3e-05 | 0.000578 ± 3.5e-05 | 0.00067 ± 4e-05 | 0.000776 ± 4.7e-05 | 0.0009 ± 5.4e-05
x2 = 0.001799, x1 = 9.1e-07 | 0.000684 ± 4.1e-05 | 0.000791 ± 4.8e-05 | 0.00091 ± 5.5e-05 | 0.00104 ± 6.2e-05 | 0.00119 ± 7.1e-05
x2 = 0.001799, x1 = 1.45e-06 | 0.000895 ± 5.4e-05 | 0.00102 ± 6.2e-05 | 0.00117 ± 7.1e-05 | 0.00132 ± 8e-05 | 0.0015 ± 9e-05
x2 = 0.001799, x1 = 1.99e-06 | 0.0011 ± 6.6e-05 | 0.00125 ± 7.7e-05 | 0.00141 ± 8.5e-05 | 0.0016 ± 9.6e-05 | 0.0018 ± 0.00011
x2 = 0.001799, x1 = 2.17e-06 | 0.00119 ± 7.1e-05 | 0.00135 ± 8.1e-05 | 0.00153 ± 9.2e-05 | 0.00172 ± 0.0001 | 0.00194 ± 0.00012
x2 = 0.001799, x1 = 2.54e-06 | 0.00127 ± 7.6e-05 | 0.00145 ± 8.8e-05 | 0.00166 ± 9.9e-05 | 0.00187 ± 0.00011 | 0.00209 ± 0.00013
x2 = 0.001799, x1 = 2.72e-06 | 0.00134 ± 8.1e-05 | 0.00155 ± 9.3e-05 | 0.00178 ± 0.00011 | 0.002 ± 0.00012 | 0.00225 ± 0.00014
x2 = 0.001799, x1 = 3.08e-06 | 0.0014 ± 8.4e-05 | 0.00162 ± 9.7e-05 | 0.00186 ± 0.00011 | 0.0021 ± 0.00013 | 0.00237 ± 0.00014
x2 = 0.001799, x1 = 3.26e-06 | – | – | 0.00195 ± 0.00012 | 0.00223 ± 0.00013 | 0.00251 ± 0.00015
x2 = 0.001799, x1 = 3.44e-06 | 0.00146 ± 8.8e-05 | 0.00169 ± 0.0001 | – | – | –
x2 = 0.001799, x1 = 3.81e-06 | 0.00155 ± 9.3e-05 | 0.0018 ± 0.00011 | 0.00206 ± 0.00012 | 0.00236 ± 0.00014 | 0.00267 ± 0.00016
x2 = 0.001799, x1 = 4.35e-06 | 0.00167 ± 0.0001 | 0.00192 ± 0.00012 | 0.0022 ± 0.00013 | 0.00253 ± 0.00015 | 0.00287 ± 0.00017
x2 = 0.001799, x1 = 4.89e-06 | 0.00179 ± 0.00011 | 0.00206 ± 0.00012 | 0.00236 ± 0.00015 | 0.0027 ± 0.00016 | 0.00307 ± 0.00018
x2 = 0.001799, x1 = 5.44e-06 | 0.00192 ± 0.00012 | 0.0022 ± 0.00013 | 0.00252 ± 0.00015 | 0.00289 ± 0.00017 | 0.00328 ± 0.0002
x2 = 0.001799, x1 = 5.98e-06 | 0.00202 ± 0.00012 | 0.00232 ± 0.00014 | 0.00265 ± 0.00016 | 0.00303 ± 0.00018 | 0.00344 ± 0.00021
x2 = 0.001799, x1 = 6.34e-06 | – | – | – | – | 0.00359 ± 0.00022
x2 = 0.001799, x1 = 6.52e-06 | 0.00213 ± 0.00013 | 0.00244 ± 0.00015 | 0.00278 ± 0.00017 | 0.00316 ± 0.00019 | –

CCCC[n+]1ccn(C)c1.O=S(=O)([O-])C(F)(F)F + NCCO
Conditions | viscosity [mPa·s]
293.15 K, 101 kPa, x2 = 0.3209 | 52.92 ± 0.78

CCCC[n+]1ccn(C)c1.[Cl-] + NCCO
viscosity [mPa·s], 100 kPa
Conditions | 293 K | 303 K | 303.1 K | 313.1 K | 333.2 K
x2 = 0.5 | – | – | 95.3 ± 2.8 | 57 ± 0.7 | 24.9 ± 0.3
x2 = 0.677 | 62.3 ± 0.9 | 37.1 ± 0.5 | – | 24.1 ± 0.3 | –

CCCC[n+]1ccn(C)c1.O=S(=O)([O-])C(F)(F)F + NCCO + O
viscosity [mPa·s], 101 kPa
Conditions | 293.15 K | 298.15 K | 303.15 K | 308.15 K | 313.15 K | 318.15 K | 323.15 K | 328.15 K | 333.15 K
x2 = 0.1349, x3 = 0.8555 | 4.3 ± 0.039 | 3.656 ± 0.033 | 3.152 ± 0.028 | 2.758 ± 0.025 | 2.447 ± 0.022 | 2.198 ± 0.02 | 2.004 ± 0.018 | 1.847 ± 0.017 | 1.718 ± 0.015
x2 = 0.1564, x3 = 0.8171 | – | 5.025 ± 0.099 | 4.267 ± 0.08 | 3.67 ± 0.066 | 3.186 ± 0.055 | 2.805 ± 0.047 | 2.511 ± 0.04 | 2.269 ± 0.034 | 2.073 ± 0.032
x2 = 0.2358, x3 = 0.6935 | 11.54 ± 0.16 | 9.48 ± 0.14 | 7.87 ± 0.12 | 6.611 ± 0.099 | 5.618 ± 0.082 | 4.823 ± 0.069 | 4.182 ± 0.059 | 3.665 ± 0.051 | 3.242 ± 0.044

CCCC[n+]1ccn(C)c1.O=S(=O)([O-])C(F)(F)F + Nc1ccccc1
100 kPa
Conditions | viscosity [mPa·s]
288.15 K, x2 = 0 | 132.7 ± 6.1
293.15 K, x2 = 0.3002 | 57.6 ± 2.6
298.15 K, x2 = 0.1995 | 56.1 ± 2.5
303.15 K, x2 = 0.3002 | 37.3 ± 1.6
318.15 K, x2 = 0.3996 | 17.67 ± 0.78
323.15 K, x2 = 0.3002 | 18.28 ± 0.81
323.15 K, x2 = 0.8999 | 3.12 ± 0.14
328.15 K, x2 = 0.8999 | 2.76 ± 0.12
333.15 K, x2 = 0.1995 | 16.23 ± 0.72
